{"source": "ChEMBL document CHEMBL3351760", "about": "“Homology modeling and explicit membrane molecular dynamics simulation to delineate the mode of binding of thiazolidinediones into FFAR1 and the mechanism of receptor activation” (Bioorg Med Chem Lett, 2014)"}
{"molecular_target": "Free fatty acid receptor 1 (Homo sapiens, UniProt O14842)", "sequence (O14842 whole entry)": "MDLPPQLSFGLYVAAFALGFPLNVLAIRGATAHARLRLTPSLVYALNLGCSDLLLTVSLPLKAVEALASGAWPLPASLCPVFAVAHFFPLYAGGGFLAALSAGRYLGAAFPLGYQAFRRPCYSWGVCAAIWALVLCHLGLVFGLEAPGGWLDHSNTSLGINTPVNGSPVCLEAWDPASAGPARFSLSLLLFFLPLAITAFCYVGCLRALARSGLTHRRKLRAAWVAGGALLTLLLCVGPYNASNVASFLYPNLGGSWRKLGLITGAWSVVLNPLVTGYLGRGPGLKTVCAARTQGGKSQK", "test": "Agonist activity at FFAR1 (unknown origin) assessed as increase in ERK1/2 MAP kinase phosphorylation", "units": {"EC50": "µM"}}
{"smiles": "O=C(O)CCc1ccc(NCc2cccc(Oc3ccccc3)c2)cc1", "note": "[GW9508]", "EC50": 0.316}
{"smiles": "CCc1ccc(CCOc2ccc(CC3SC(=O)NC3=O)cc2)nc1", "note": "(stereo not drawn) [PIOGLITAZONE]", "EC50": 813}
{"smiles": "CN(CCOc1ccc(CC2SC(=O)NC2=O)cc1)c1ccccn1", "note": "(stereo not drawn) [ROSIGLITAZONE]", "EC50": 11.5}
